Results from patent publication US11541130B2, “Systems and methods for nucleic acid expression in vivo” (DNARx, priority 2017, dated 2023).

Experiments:
[1] = type: in vivo; details: mice
[2] = in vivo; cited from earlier work

In the case of “Rituximab: anti-CD20 monoclonal antibody expressed in mice from plasmid vector containing Rituximab cDNA”, the “Duration of serum anti-CD20 mAb (Rituximab) expression” value ([1]; after a single sequential IV injection, 1050 nmol DOTAP 2.5% DP, 75 ug plasmid) is reported as “over 275 days”.

With dexamethasone palmitate the “Serum anti-CD20 mAb (Rituximab) level, in words” value ([1]; ELISA 24 hrs after sequential injection (Example 18: also over time)) was “further increases gene expression in vivo”.

B1: Neupogen: recombinant human G-CSF protein (protein, UniProt P09919 31-207, looked up)
Granulocyte …: TPLGPASSLPQSFLLKCLEQVRKIQGDGAALQEKLVSECATYKLCHPEELVLLGHSLGIPWAPLSSCPSQALQLAGCLSQLHSGLFLYQGLLQALEGISPELGPTLDTLQLDVADFATTIWQQMEELGMAPALQPTQGAMPAFASAFQRRAGGVLVASHLQSFLEVSYRVLRHLAQP
modifications: filgrastim
notes: recombinant human G-CSF protein
In the case of B1, the “Time for serum HG-CSF levels to return to baseline after each daily dose” value [2] is listed as “approximately 14 hours”.
